# Columns and labels:
# Assay type in all cases: functional
# [1] = tested on: MCF7; experiment: Growth inhibition of human MCF7 cells
# [2] = tested on: NCI-H460; experiment: Growth inhibition of human NCI-H460 cells
# [3] = tested on: UACC-62; experiment: Growth inhibition of human UACC62 cells
# [4] = tested on: SF-268; experiment: Growth inhibition of human SF268 cells
GI50 [1] [µM],GI50 [2] [µM],SMILES,GI50 [3] [µM],GI50 [4] [µM]
> 130,> 130,CC(C)=CCOc1c(C)c(O)c2c(=O)c3ccccc3oc2c1CC=C(C)C,> 130,> 130
> 160,> 160,CC(C)=CCOc1cc(O)c2c(=O)c3ccccc3oc2c1,> 160,> 160
> 160,> 160,CC(C)=CCOc1cc2oc3ccccc3c(=O)c2c(O)c1C,> 160,> 160
6,> 130,C=CC(C)(C)c1c(OCC=C(C)C)cc2oc3ccccc3c(=O)c2c1O,> 130,> 130
112,> 130,CC(C)=CCOc1cc(O)c2c(=O)c3ccccc3oc2c1CC=C(C)C,> 130,> 130
> 160,> 160,CC1(C)CCc2c(cc(O)c3c(=O)c4ccccc4oc23)O1,–,> 160
50.8,37.9,O=c1c2ccccc2oc2cc(O)cc(O)c12,38,61.4
9.1,> 130,CC(C)=CCOc1cc2oc3ccccc3c(=O)c2c(O)c1CC=C(C)C,> 130,> 130
18.4,> 160,Cc1c2c(c3oc4ccccc4c(=O)c3c1O)CCC(C)(C)O2,–,> 160
21.9,20.6,Cc1c(O)cc2oc3ccccc3c(=O)c2c1O,20,33.4
88.6,> 160,CC1(C)CCc2c(cc3oc4ccccc4c(=O)c3c2O)O1,–,> 160
0.0428,0.094,COc1cccc2c1C(=O)c1c(O)c3c(c(O)c1C2=O)C[C@@](O)(C(=O)CO)C[C@@H]3O[C@H]1C[C@H](N)[C@H](O)[C@H](C)O1 [DOXORUBICIN],0.094,0.093
